Measurements reported in patent publication US6914045B2, “Glycopeptide antibiotics” (Wyeth Holdings Corporation, priority 2001, dated 2005).
Where “and” joins values, the source holds several entries; their conditions need not be identical. Identical values can stand only once.

Test system: Staphylococcus aureus
Experiment: zone of inhibition, agar well assay plate
Format: cell-based
Conditions: 25 μl of extract per 5 mm well, incubated overnight at 37° C.
Procedure: Protocol for Assay Plate Staphylococcus aureus
Inoculate 10 mL of Tryptic Soy Broth with a loopful of slant culture, Staphylococcus aureus, and place in a stationary rack at 37° C. After 16-18 hour incubation, the Optical Density (OD) of the culture is read@A600 nm, using a 1:10 dilution. OD should be between 0.1-0.3, and if not adjust with Tryptic Soy Broth. A 40 mL sample of Nutrient Agar, pH 6.8 is inoculated with 90 ul of S. aureus culture and poured into a sterile petri dish. When the agar has solidified, wells (5 mm) are plated using an automated welling device. Wells are inoculated with 25 μl of extract and incubated overnight at 37° C. Zones of inhibition are measured and recorded the following morning.

SMILES	Zone of Inhibition vs. S. aureus
CC(C)CCC(=O)OC1C(CO)OC(OC2C(CO)OC(Oc3ccc(CC4NC(=O)C(C(C)c5ccccc5)NC(=O)CNC(=O)C(CO)NC(=O)C(C(O)C5CNC(=N)N5C5OC(CO)C(O)C(O)C5O)NC(=O)C(C(O)C5CNC(=N)N5)NC4=O)cc3)C(O)C2O)C(O)C1O (stereo not drawn) [Example 270c, Cyclo[glycyl-β-methylphenylalanyl-O-[4-O-[4-O-(4-methylpentanoyl)hexopyranosyl]-hexopyranosyl]tyrosyl-3-(2-iminoimidazolidin-4-yl)seryl-3-(3-hexopyranosyl-2-iminoimidazolidin-4-yl)serylseryl]]	11 mm
CCCCCCC(=O)OC1C(OC2C(CO)OC(Oc3ccc(CC4NC(=O)C(C(C)c5ccccc5)NC(=O)CNC(=O)C(CO)NC(=O)C(C(O)C5CNC(=N)N5C5OC(CO)C(O)C(O)C5O)NC(=O)C(C(O)C5CNC(=N)N5)NC4=O)cc3)C(O)C2O)OC(CO)C(O)C1O (stereo not drawn) [Example 274a, Cyclo[glycyl-β-methylphenylalanyl-O-[4-O-(2-O-heptanoyl-hexopyranosyl)-hexopyranosyl]tyrosyl-3-(2-iminoimidazolidin-4-yl)seryl-3-(3-hexopyranosyl-2-iminoimidazolidin-4-yl)serylseryl]]	9 mm
CCCCCC(=O)OC1C(O)C(CO)OC(OC2C(CO)OC(Oc3ccc(CC4NC(=O)C(C(C)c5ccccc5)NC(=O)CNC(=O)C(CO)NC(=O)C(C(O)C5CNC(=N)N5C5OC(CO)C(O)C(O)C5O)NC(=O)C(C(O)C5CNC(=N)N5)NC4=O)cc3)C(O)C2O)C1O (stereo not drawn) [Example 273b, Cyclo[glycyl-β-methylphenylalanyl-O-[4-O-(3-O-hexanoyl-hexopyranosyl)-hexopyranosyl]tyrosyl-3-(2-iminoimidazolidin-4-yl)seryl-3-(3-hexopyranosyl-2-iminoimidazolidin-4-yl)serylseryl]]	9 mm and 8 mm
CCCCCCC(=O)OC1C(O)C(CO)OC(OC2C(CO)OC(Oc3ccc(CC4NC(=O)C(C(C)c5ccccc5)NC(=O)CNC(=O)C(CO)NC(=O)C(C(O)C5CNC(=N)N5C5OC(CO)C(O)C(O)C5O)NC(=O)C(C(O)C5CNC(=N)N5)NC4=O)cc3)C(O)C2O)C1O (stereo not drawn) [Example 274b, Cyclo[glycyl-β-methylphenylalanyl-O-[4-O-(3-O-heptanoyl-hexopyranosyl)-hexopyranosyl]tyrosyl-3-(2-iminoimidazolidin-4-yl)seryl-3-(3-hexopyranosyl-2-iminoimidazolidin-4-yl)serylseryl]]	10 mm
